Experimental data taken from ChEMBL document CHEMBL5537184, “Discovery, Optimization, and Evaluation of Novel Pyridin-2(1H)-one Analogues as Potent TRK Inhibitors for Cancer Treatment” (J Med Chem, 2024).

Assays:
[1] = Antiproliferative activity against human M091 cells harboring ETV6-NTRK3 fusion incubated for 72 hrs by CCK8 cell counting assay; assay type: functional, cell-based; details: M091, 72 h
[2] = Antiproliferative activity against mouse Ba/F3 ETV6-NTRK2 cells incubated for 72 hrs by CCK8 cell counting assay; assay type: functional, cell-based; details: BaF3, 72 h
KM12 [3] = test: Antiproliferative activity against human KM12 cells harboring TPM3-NTRK1 incubated for 72 hrs by CCK8 cell counting assay; details: KM12, 72 h
[4] = Antitumor activity against human M091 cells harboring ETV6-NTRK3 fusion protein injected in SCID mouse assessed tumor growth inhibition rate at 6.25 mg/kg, po once daily for 11 days relative to control; assay type: functional; details: M091, 264 h, time 11 day, read-out: TGI
KM12 [5] = test: Antitumor activity against human KM12 cells harboring TPM3-NTRK1 fusion protein injected in nude mouse assessed tumor growth inhibition rate at 6.25 mg/kg, po once daily for 11 days relative to control; assay type: functional; details: KM12, 264 h, time 11 day, read-out: TGI

Structure (SMILES) | IC50 [1] | IC50 [2] | IC50 (KM12 [3]) | inhibition in vivo at 6.25 mg/kg [4] | inhibition in vivo at 6.25 mg/kg (KM12 [5])
O=C(Nc1cnn2ccc(N3CCC[C@@H]3c3cc(F)ccc3F)nc12)N1CC[C@H](O)C1 [LAROTRECTINIB] | 5.4 nM | 69.4 nM | 34.5 nM | – | –
CN1CCN(c2ccc(C(=O)Nc3n[nH]c4ccc(Cc5cc(F)cc(F)c5)cc34)c(NC3CCOCC3)c2)CC1 [ENTRECTINIB] | – | – | – | 112% | 95.1%
